From patent publication US12371432B2, “Haloallylamine compounds and application thereof” (TransThera Sciences (Nanjing), Inc., priority 2019, dated 2025)
Counter-ions that a name gives are not always drawn. Like-named read-outs stand apart in the source and are kept apart here.

What was measured:
rhAOC1 = target: T1, rhAOC1 (Homo sapiens, UniProt P19801); assay: Selectivity against rhAOC1 enzyme (Biological Example 1); type: biochemical; details: Table 1; histamine substrate, Amplex Red/HRP
T1 construct: purchased R&D
T1 sequence (P19801 20-751): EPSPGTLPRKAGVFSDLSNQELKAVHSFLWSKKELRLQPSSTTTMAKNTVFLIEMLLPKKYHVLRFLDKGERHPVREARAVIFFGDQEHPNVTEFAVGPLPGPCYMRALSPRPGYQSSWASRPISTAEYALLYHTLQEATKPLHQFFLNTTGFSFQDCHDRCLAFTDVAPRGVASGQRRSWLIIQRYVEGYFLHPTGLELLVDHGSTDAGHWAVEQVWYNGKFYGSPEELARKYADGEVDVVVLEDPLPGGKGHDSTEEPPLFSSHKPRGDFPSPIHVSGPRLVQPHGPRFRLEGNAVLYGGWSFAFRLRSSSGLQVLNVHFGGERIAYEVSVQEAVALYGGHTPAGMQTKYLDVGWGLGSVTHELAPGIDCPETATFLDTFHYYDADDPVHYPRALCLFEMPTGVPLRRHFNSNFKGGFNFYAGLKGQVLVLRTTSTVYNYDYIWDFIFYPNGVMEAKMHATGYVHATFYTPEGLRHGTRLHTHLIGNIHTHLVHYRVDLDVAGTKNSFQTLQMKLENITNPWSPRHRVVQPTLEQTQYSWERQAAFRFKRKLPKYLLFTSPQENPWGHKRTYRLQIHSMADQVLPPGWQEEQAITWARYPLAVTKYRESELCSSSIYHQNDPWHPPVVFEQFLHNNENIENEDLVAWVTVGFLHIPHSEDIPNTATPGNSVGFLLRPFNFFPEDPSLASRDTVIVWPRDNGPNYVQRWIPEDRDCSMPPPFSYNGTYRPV
Description: 2. Selectivity of Compounds Against rhAOC1 Enzyme
(1) Instrument, Consumable and Reagent
Microplate reader (Perkin Elmer, Nivo 5S), black unclear-bottom 96-well plate (Corning) and rhAOC1 (R&D)
(2) Preparation of Concentration Gradient Compound Solutions
An appropriate amount of the compound to be tested was taken, dissolved in DMSO to 10 mM and then stored. Before the study, an appropriate amount of mother liquor of the 10 mM compound to be tested was taken and gradiently diluted 3-fold with DMSO, 10 concentration gradients in total. Each concentration gradient was then diluted 10-fold with 0.1 M of PBS.
(3) Preparation of Enzyme Solutions
An appropriate amount of rhAOC1 mother liquor with a concentration of 0.441 mg/mL was taken and diluted with an appropriate amount of 50 mM HEPES buffer solution to obtain enzyme solutions of 4× concentrations.
(4) Preparation of Substrate Mixtures of 2× Concentrations
An appropriate amount of histamine was weighed and dissolved with 50 mM of HEPES buffer solution to obtain 20 mM of histamine solution. The histamine solution was added with 2 mM of Amplex Red mother liquor and 500 U/mL of HRP mother liquor and diluted with 50 mM of HEPES buffer solution to obtain substrate mixtures of 2× concentrations.
10 μL compound solutions of different concentrations, 25 μL rhAOC1 enzyme solutions of 4× concentrations and 15 μL of 50 mM HEPES buffer solution were first added into a 96-well plate, shaken to be mixed uniformly and then incubated at 37° C. for 30 min. 50 μL substrate mixtures of 2× concentrations were then added into each well, and the microplate reader was immediately used to detect fluorescence intensity of each well with 580 nm (20 nm) exciting light and 620 nm (10 nm) emission light for 5 min each time, 30 min in total. […]
V: fluorescence change rate; Ft: fluorescence reading at time point t; F0: initial fluorescence reading; Time: duration t; Vcmpd: fluorescence change rate of tested compound; Vmax: Max hole fluorescence change rate. […]

[1] = Rat blood-brain barrier evaluation; type: in vivo; details: SD rats, intragastric 10 mg/kg; for concentrations in brain tissues (in words): over time
Description: (1) Animal Administration and Sampling Method:
The study compound A1, the compound A41 and PXS-4728 were dissolved in normal saline to prepare solutions. The prepared solutions were separately administered by intragastric administration to SD rats at a dose of 10 mg/kg. […] At each time point, samples were collected from three SD rats.
On the day of the study, the animals were fixed to collect 0.15 mL of blood from the jugular vein at each set time point, and the whole blood samples were put into anticoagulation tubes containing EDTA-K2. After blood sampling was completed, heart perfusion was immediately performed for the animals, and following the heart perfusion, brain tissue samples were collected.
After the whole blood samples were centrifuged under the condition of 1,524 g for 10 min, top plasma samples were collected into sample tubes. The tissue samples were weighed, added with 20% of aqueous methanol solution at a weight-to-volume ratio of 1:5 (tissue:homogenate) and homogenized. The biological samples were stored at −40° C. to −20° C. for analysis.
(4) Sample Analysis Method:
(§1) Plasma sample: The samples to be tested were taken out of the refrigerator, naturally thawed at room temperature and then swirled for 5 min, and 20 μL of plasma sample was accurately pipetted into 1.5 mL centrifuge tubes. 100 μL of internal standard working solution (solution of 5 ng/mL verapamil and 50 ng/mL glibenclamide in acetonitrile) was added, and uniform mixing was performed. After 1 min of swirling, centrifugation was performed at 13,000 rpm for 8 min. 40 μL of supernate was accurately pipetted into a 96-well plate added with 160 μL water/well in advance. Uniform mixing was performed by swirling for 10 min, followed by LC-MS/MS assay.
as §1, with “Brain tissue” for “Plasma”, “50” for “20”, “250” for “100”, “30” for “40”, “150” for “160”
(5) Data Processing Method:
Analyst 1.6.2 from AB Sciex was used to output concentration results of tested compounds. Microsoft Excel was used to calculate parameters such as mean value, standard deviation and variation coefficient (excluding those outputted directly by Analyst 1.6.2).

[2] = rat, plasma, oral, 0.167 h, read-out: Average Plasma concentration (N=3)
[3] = rat, plasma, oral, 1 h, read-out: Average Plasma concentration (N=3)
[4] = rat, plasma, oral, 6 h, read-out: Average Plasma concentration (N=3)

SMILES | IC50 (rhAOC1) [µM] | Average Brain tissue concentration (N=3) ([1]; 0.167 h) | Mean brain tissue/plasma concentration ratio ([1]; 0.167 h) | concentrations in brain tissues (in words) [1] | concentration at 1 h ([1]; rat, brain, oral, 1 h, read-out: Average Brain tissue concentration (N=3)) [ng/g] | concentration at 6 h ([1]; rat, brain, oral, 6 h, read-out: Average Brain tissue concentration (N=3)) [ng/g] | Kp at 1 h ([1]; rat, brain/plasma, oral, 1 h, read-out: Mean brain tissue/plasma concentration ratio) | Kp at 6 h ([1]; rat, brain/plasma, oral, 6 h, read-out: Mean brain tissue/plasma concentration ratio) | concentration at 0.167 h [1, 2] [ng/mL] | concentration at 1 h [1, 3] [ng/mL] | concentration at 6 h [1, 4] [ng/mL] | Average Brain tissue concentration (N=3) ([1]; 1 h) | Average Brain tissue concentration (N=3) ([1]; 6 h)
NC/C(=C\F)Cn1ncc2c1CCN(C1CC1)C2=O [Compound A2 hydrochloride, (E)-1-(2-(aminomethyl)-3-fluoroallyl)-5-cyclopropyl-1,5,6,7-tetrahydro-4H-pyrazolo[4,3-c]pyridin-4-one] | > 10 | – | – | – | – | – | – | – | – | – | – | – | –
NC/C(=C\F)Cn1cc2c(n1)CCN(C1CC1)C2=O [Compound A1, (E)-2-(2-(aminomethyl)-3-fluoroallyl)-5-cyclopropyl-2,5,6,7-tetrahydro-4H-pyrazolo[4,3-c]pyridin-4-one] | 22.1 | BLOQ | 0← | below the limit of detection | 39.1 | 31.3 | 0.03 | 0.39 | 158 | 1300 | 80.7 | – | –
NC/C(=C\F)Cn1cc2c(=O)n(C3CC3)ccc2n1 [Compound A41, (E)-2-(2-(aminomethyl)-3-fluoroallyl)-5-cyclopropyl-2,5-dihydro-4H-pyrazolo[4,3-c]pyridin-4-one] | – | BLOQ | – | below the limit of detection | – | – | – | – | 624 | 1750 | 39.7 | BLOQ | BLOQ
